Measurements published in publication PMC5321434, “Dihydrobenz[e][1,4]oxazepin-2(3H)-ones, a new anthelmintic chemotype immobilising whipworm and reducing infectivity in vivo” (PLoS Neglected Tropical Diseases, 2017).
Where two headings read alike, the source gives them in different places. Each block holds one compound with its values, some of them ahead of it.

Key:
[1] = WST-8 cytotoxicity assay; type: cell-based, mouse; conditions: mouse, CMT-93 rectal epithelial cells; resynthesised compound, WST-8 cytotoxicity; read-out: ResynCytotoxityWST-8(EC50uM)
Method: CMT-93 murine rectal epithelial cells were maintained in Dulbecco's Modified Eagle's Medium (DMEM) with 10% fetal calf serum (FCS) and 1% penicillin-streptomycin solution (10,000U/ml). Cells were plated in 96-well tissue culture plates at a density of 2x10^2 cells per well in a volume of 100μl, and cultured for 96 hours (37°C, 5% CO2) until reaching 30% confluence. The growth medium was removed and replaced with treatment media (DMEM, 1% FCS, 1% penicillin-streptomycin solution, 100μl assay volume) supplemented with vehicle alone (DMSO), test compounds or chlorpromazine, a positive control for cytotoxicity (final concentrations from 0 to 100μM). Maximum vehicle concentration for all compounds was 0.5% DMSO. Cells were cultured with the test compounds for 72 hours before cytotoxicity measurement. The WST-8 assay was performed using the Cell Counting Kit– 8 (Sigma Aldrich # 96992). 10μl of the CCK-8 solution was added to each well, plates were incubated for a further 2 hours, before absorbance was measured at 450nm using a microplate reader. This assay measures the ability of metabolically active cells to reduce a water-soluble formazan dye. Results were analysed using GraphPad Prism and fitted using a log-logistic model.

[2] = tested on: un-embryonated T. muris eggs; experiment: Embryonation assay; design: species or system Trichuris muris; conditions: resynthesised compound, activity on T. muris embryonation (Yes/No)
Method: To assess whether the dihydrobenzoxazepinone compounds could also prevent embryonation, 100 un-embryonated eggs were treated with OX02983 and OX03153 at 100μM for 56 days in the dark at room temperature, then examined under an Olympus SD-ILK microscope for signs of embryonation.

[3] = tested on: embryonated T. muris eggs; experiment: In vivo establishment of infection by compound-treated embryonated eggs; design: species or system Trichuris muris; conditions: resynthesised compound, activity on T. muris egg infectivity (Yes/No)
Method: 100 infective embryonated eggs were incubated with water, water plus DMSO vehicle, or test compounds at a final concentration of 100μM for 14 days at room temperature. Eggs were then washed, re-suspended in water and 30 eggs given to a mouse via oral gavage. At day 15 post-infection, mice were culled and the number of worms present in the caecae and colon was counted. One data point was excluded: a water control individual mouse where there were technical difficulties with the oral gavage leading to the mouse regurgitating some of the T. muris eggs. It was ear marked at day of gavage and removed from the analysis.
We collected data using the same experimental design on different occasions, these are referred to as batches. Data were obtained from three batches (DMSO and water controls, batches [A,B,C]) or two batches (OX02983 [A,C], OX03153 [B,C]) with the total number of mice used, n, as follows: DMSO: 14, water: 16, OX02983: 10, OX03153: 12. The data were analysed by 2-way ANOVA (worms ~ treatment + batch + treatment * batch). There was no significant interaction effect (P = 0.14) or effect of batch (P = 0.47). We therefore combined the data from the three batches. […] We then conducted a post-hoc test using Tukey’s honest significant difference test.

[4] = tested on: adult T. muris; experiment: Ex vivo adult T. muris automated motility assay (primary/secondary screen at 100 μM and dose-response); design: species or system Trichuris muris; conditions: for EC50: Trichuris muris, resynthesised compound, adult T. muris paralysis, read-out: ResynActivityTmurisAdultParalysis(EC50uM); for COMBINED_SCREEN_ACTIVITY: combined primary and secondary screen minus log fold change in movement, adult T. muris; for PRIMARY_SCREEN_MINUS_LOG_FOLD_CHANGE_MOVEMENT: primary screen
Outline: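 Adult worms recovered from SCID mice at day 35 post-infection (200 eggs orally), one per well, in RPMI-1640 with penicillin/streptomycin and 1% DMSO. Compound at 100 μM final in primary screen, 24 h at 37 °C, 5% CO2; motility from pixel-variance imaging, dose-response by four-parameter log-logistic fit.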

[5] = Neutral red cytotoxicity assay; type: cell-based, mouse; conditions: mouse, CMT-93 rectal epithelial cells; resynthesised compound, neutral red cytotoxicity; read-out: ResynCytotoxicityNeutralRed(EC50uM)
Method: CMT-93 murine rectal epithelial cells were maintained in Dulbecco's Modified Eagle's Medium (DMEM) with 10% fetal calf serum (FCS) and 1% penicillin-streptomycin solution (10,000U/ml). Cells were plated in 96-well tissue culture plates at a density of 2x10^2 cells per well in a volume of 100μl, and cultured for 96 hours (37°C, 5% CO2) until reaching 30% confluence. The growth medium was removed and replaced with treatment media (DMEM, 1% FCS, 1% penicillin-streptomycin solution, 100μl assay volume) supplemented with vehicle alone (DMSO), test compounds or chlorpromazine, a positive control for cytotoxicity (final concentrations from 0 to 100μM). Maximum vehicle concentration for all compounds was 0.5% DMSO. Cells were cultured with the test compounds for 72 hours before cytotoxicity measurement. Following the WST-8 assay, the medium was removed, cells were washed with 100μl PBS and then 100μl of neutral red medium (DMEM, 1% FBS and 33μg/ml neutral red dye (Sigma Aldrich #N2889) were added to each well, followed by incubation for a further 2 hours. The neutral red medium was removed, cells washed with 100μl of PBS and 100μl of destain solution (50% ethanol, 49% distilled water and 1% glacial acetic acid) were added. Each assay plate was shaken rapidly for 10 minutes before absorbance was measured at 540nm using a microplate reader. This assay measures the ability of living cells to actively take up the neutral red dye. Results were analysed using GraphPad Prism and fitted using a log-logistic model.

[6] = tested on: T. muris L1 larvae; design: method as in PMID 23433224; conditions: cited from earlier work
[7] = tested on: T. muris L4 larvae; design: method as in PMID 21889548; conditions: maximum concentration tested 200μg/ml or 229μM; cited from earlier work
[8] = tested on: T. trichiura; conditions: single doses of benzimidazoles; cited from earlier work
[9] = tested on: L3/L4 and adult T. muris; design: method as in PMID 25261877; conditions: 200μg/ml (678μM); cited from earlier work
[10] = tested on: Ascaris; design: method as in PMID 18430913; conditions: annual treatment; cited from earlier work
[11] = adult T. muris motility, 100 μM

EC50 [4]: 57 µM
Compound: Cc1ccc(CN2C(=O)COCc3cc(-c4cccnc4)ccc32)cc1 [Compound 5]
EC50 at 72 h [1]: > 100 µM
ResynActivityTmurisEmbryonation [2]: No
ResynActivityTmurisEggInfectivity [3]: No
COMBINED_SCREEN_ACTIVITY ([4]; 100 μM): 10.5493
PRIMARY_SCREEN_MINUS_LOG_FOLD_CHANGE_MOVEMENT [4, 11]: 10.5493
EC50 at 72 h [5]: > 100 µM

Compound: Ivermectin
Activity against T. muris L1 larvae ([6]; maximum concentration tested 50μg/ml or 57μM): not active
Activity against T. muris L4 larvae [7]: not active

EC50 [4]: 50 µM
Compound: Cc1ccc(CN2C(=O)COCc3cc(-c4ccncc4)ccc32)cc1 [Compound 1]
EC50 at 72 h [1]: > 100 µM
ResynActivityTmurisEmbryonation [2]: No
ResynActivityTmurisEggInfectivity [3]: Yes
COMBINED_SCREEN_ACTIVITY ([4]; 100 μM): 8.615
PRIMARY_SCREEN_MINUS_LOG_FOLD_CHANGE_MOVEMENT [4, 11]: 10.6993
SECONDARY_SCREEN_MINUS_LOG_FOLD_CHANGE_MOVEMENT ([4]; secondary screen, adult T. muris motility, 100 μM): 6.531
EC50 at 72 h [5]: > 100 µM

Compound: COC(=O)Nc1nc2ccc(C(=O)c3ccccc3)cc2[nH]1 [Mebendazole]
Cure rate for infection with T. trichiura [8]: 36%
Activity against L3/L4 and adult T. muris [9]: active
Activity against T. muris L1 larvae ([6]; maximum concentration tested 50μg/ml or 169μM): not active
Cure rate, Ascaris [10]: up to 95%
